Data taken from patent US20110256121A1, “METHODS AND KITS FOR DIAGNOSING OR MONITORING AUTOIMMUNE AND CHRONIC INFLAMMATORY DISEASES” (THE REGENTS OF THE UNIVERSITY OF MICHIGAN, priority 2008, published 2011).

What was measured:
[1] = system: KIR; test: KIR expression on 5-azaC treated T cells, anti-KIR antibody cocktail, flow cytometry; format: cell-based, human
Description: Antibodies: Unconjugated and PE-conjugated anti-CD158d (KIR2DL4) were purchased from R&D Systems, Minneapolis, Minn. and unconjugated and PE-conjugated anti-NKB1 (KIR3DL1), anti-perforin antibodies and isotype matched control antibodies were obtained from BD PharMingen, San Diego Calif. PE-conjugated anti-CD158i (KIR2DS4) was obtained from Beckman Coulter (Fullerton Calif.). Anti-CD4-Cy5, anti-CD8-FITC, and PE-conjugated antibodies to and KIR2DS2 (anti-CD158b) were obtained from BD PharMingen, KIR2DL1/2DS2 (CD158a/h) and KIR3DL1/3DS1 (CD158e1/e2) from Beckman Coulter, and 2DL1/2DL3/2DS2 (anti-CD158 b1/b2/j (GL183) was purchased from R&D Systems. Minneapolis, Minn.). Ten microliters of each PE-conjugated anti-KIR antibody were mixed to form a “cocktail” used to stain the cells. […] Following staining, the cells were fixed in 1% paraformaldehyde and kept at 4° C. until analyzed. […]
CD4+ and CD8+ T cells demethylate and express KIR genes following treatment with the DNA methylation inhibitor 5-azaC. PBMC from 11 healthy subjects were stimulated with PHA, treated with 5-azaC, then KIR expression was measured on untreated and treated CD4+ and CD8+ cells using a “cocktail” of anti-KIR antibodies and flow cytometry as described in Materials and Methods above.

[2] = system: KIR2DL4; test: KIR2DL4 transcripts by real-time quantitative RT-PCR; format: cell-based, human; settings: relative to β-actin, p<0.001 for both
Protocol: T cell purification and culture. Peripheral blood mononuclear cells (PBMC) were isolated from healthy donors by density gradient centrifugation, stimulated for 18 hours with 1 μg/mlphytohemagglutinin (PHA) (Murex, Norcross, Ga.), then treated or not with 5 μm 5-azacytidine (5-azaC, Sigma, St. Louis, Mo.) for 72 hours as described (6). Total T cells, CD4^+ T cells or CD8′ T cells then were purified using the pan T cell isolation kit II or the CD4^+ and CD8^+ T cell isolation kit II from Miltenyi (Auburn, Calif.). T cells were typically >94% CD3^+ by flow cytometry. Jurkat cells (E6-1) were maintained in culture as described (11). This protocol was approved by the University of Michigan Institutional Review Board.
Real-time quantitative RT-PCR. Total RNA was isolated using the RNeasy Mini Kit (QIAGEN, Valencia, Calif.). Primers were designed to match polymorphic positions unique to KIR2DL2 or KIR2DL4 genes as described by Uhrberg et al. (13). Controls included β-actin primers as described (14). Real-time quantitative RT-PCR was performed with a Rotor-Gene 3000 (Corbett Robotics, San Francisco, Calif.) and QuantiTect SYBR Green RT-PCR kit (QIAGEN) according to manufacturer's instructions. cDNA synthesized from T cells was used to generate standard curves for β-actin, KIR2DL2 and KIR2DL4, and each experiment was repeated at least twice.

[3] = system: KIR2DL2 and KIR2DL4 promoters; test: Chromatin immunoprecipitation (ChIP) assays; format: cell-based, human; settings: 5-azaC treated vs untreated, n=3, p<0.03
Protocol: Chromatin immunoprecipitation (ChIP) assays. Transcription factor binding to KIR2DL2 and KIR2DL4 promoter sequences was determined using mAb to Sp1 (Upstate Biotechnology), Ets1 and AML1 (Abcam) and the ChIP-IT kit with protocols provided by the manufacturer (Active Motif, Carlsbad, Calif.). Briefly, 4.5×10^7 untreated and 5-azaC treated T cells were crosslinked, sonicated, chromatin immunoprecipitated with the relevant mAb, and precipitated DNA amplified by real-time PCR using a Rotor-Gene 3000. Standard curves were determined for each primer set by dilution of the total input 5-azaC treated DNA in a 0.1-100 ng range. The amount of each sequence in the input and precipitated DNA was calculated from the cycle threshold (CT) for each primer set using the standard curves. The primers used were: […]
ChIP assays were then used to compare transcription factor binding to the KIR2DL2 and KIR2DL4 promoters in untreated and 5-azaC treated cells. […] The reason for this is uncertain, but may reflect the structural differences in the KIR2DL2 and KIR2DL4 promoters.

[4] = target: T1, KIR3DL1 (Homo sapiens, UniProt P43629); test: Macrophage killing assay with 5-azaC treated T cells, 51Cr release; format: cell-based; settings: 18 hrs
T1 construct: endogenous in cells; host or cells: primary T cells of healthy donors, PHA-stimulated and 5-azaC treated, with autologous monocytes/macrophages
T1 sequence (P43629 22-444): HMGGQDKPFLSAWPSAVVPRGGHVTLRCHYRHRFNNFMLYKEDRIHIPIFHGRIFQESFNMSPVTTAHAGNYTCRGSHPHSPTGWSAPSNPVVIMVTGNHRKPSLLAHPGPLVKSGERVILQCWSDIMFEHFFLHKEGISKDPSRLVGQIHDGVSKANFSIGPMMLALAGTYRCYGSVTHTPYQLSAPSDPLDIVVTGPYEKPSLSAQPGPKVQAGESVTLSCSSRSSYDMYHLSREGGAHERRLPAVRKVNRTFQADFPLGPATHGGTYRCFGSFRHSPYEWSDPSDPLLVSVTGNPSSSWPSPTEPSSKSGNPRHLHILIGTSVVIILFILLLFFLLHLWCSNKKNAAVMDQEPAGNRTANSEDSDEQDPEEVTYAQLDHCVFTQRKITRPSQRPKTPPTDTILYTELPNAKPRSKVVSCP

SMILES: Nc1ncn([C@@H]2O[C@H](CO)[C@@H](O)[C@H]2O)c(=O)n1 [5-azaC, 5-azacytidine]
- expression of additional KIR proteins on T cells [1]: induced expression of additional KIR proteins including KIR3DL1, KIR2DS4 and KIR2DL2/2DL3
- KIR expression on CD4+ and CD8+ T cells ([1]; 11 healthy subjects, PHA, anti-KIR cocktail): significantly increases KIR expression
- KIR2DL4 mRNA in CD4+ and CD8+ T cells [2]: increase is significant on both subsets
- binding of Sp1, Ets1 and AML1 to both promoters [3]: increases binding of all 3 transcription factors
- killing of autologous Mo by demethylated (5-azaC treated) T cells [4]: spontaneously kill autologous Mo
